Drawing on PubChem BioAssay (NCI), this text covers TGI and GI50 for nine molecules.

The structures appear in SMILES notation.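 Each compound was tested at five concentrations against cells in 96-well plates for 48 hours. GI50 marks 50% less growth. Definition used: TGI = concentration required for complete inhibition of growth.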

Experiment in all cases: growth of human tumour cells (NCI), 48 h
The test system of assay [1] is CCRF-CEM leukemia.
Assay [2] concerns HT29 colon.
Assay [3] has as its system LOX IMVI melanoma.
The test system of assay [4] is MALME-3M melanoma.
The subject of assay [5] is NCI-H460 lung.
The test system of assay [6] is NCI-H522 lung.
The subject of assay [7] is SF-268 CNS.
Assay [8] has as its system SK-OV-3 ovarian.
Assay [9] concerns SNB-19 CNS.
Assay [10] relates to TK-10 renal.

In the case of `CC1OC(O[C@H]2C[C@@H](O)[C@]3(CO)[C@H]4[C@H](O)C[C@]5(C)[C@@H](C6=CC(=O)OC6)CC[C@]5(O)[C@@H]4CC[C@]3(O)C2)C(O)C(O)C1O` (some centres undefined), the TGI was 52.5 µM in assay [1]; 36 µM in assay [2]; 34 µM in assay [3]; 35.9 µM in assay [4]; 35.4 µM in [5]; 32.5 µM in [6]. Besides, the TGI in [7] was found to be 33.5 µM; in assay [8] it was 33.8 µM; in [9], 33.6 µM; in assay [10], 30 µM. Moreover, the GI50 in assay [2] is 19.5 µM; in assay [3] it was 19 µM; in [4], 19.5 µM; in assay [5], 19.1 µM; in assay [6] it was 17.8 µM; in assay [7], 18.9 µM. Also, the GI50 in assay [8] was 18.8 µM; in assay [9], 18.3 µM; in assay [10] it was 16.2 µM.

In the case of `Cc1nc2cccc([N+](=O)[O-])c2c(NCCCN(C)C)c1C`, the TGI in assay [1] was above 75.2 µM; in [2], 55.3 µM; in assay [3], above 100 µM; in assay [4], above 31.6 µM; in assay [5], above 59.6 µM; in [6] it was 40.6 µM. Also, the TGI in [7] was above 100 µM; in assay [8], above 100 µM; in assay [9] it was above 100 µM; in [10], above 55.1 µM.

Regarding `CNC(=O)OCc1c(COC(=O)NC)c(-c2ccc(Cl)c(Cl)c2)n2c1SCC2`, the TGI in [1] turned out to be 64.9 µM; in [2] it was 37.5 µM; in assay [3], 25.5 µM; in [4], 37.8 µM; in assay [5] it was 19.9 µM; in [6] it was 21.5 µM. Further, the TGI in assay [7] was 32.9 µM; in assay [8], 28.1 µM; in [9], above 84.9 µM; in [10] it was 19.1 µM.

Consider `CCCCC(=O)OCC1OC(n2cnc3c(=S)nc[nH]c32)C(OC(=O)CCCC)C1OC(=O)CCCC` (centres undefined), for which the GI50 in assay [1] was 3.25 µM; in assay [2] it was 3.64 µM; in [3], 1.11 µM; in assay [4], above 22.1 µM; in assay [5] it was 4.38 µM; in assay [6] it was 0.498 µM. For the same molecule, the GI50 is 3.96 µM in assay [7], 0.636 µM in assay [8], 17.9 µM in assay [9] and 0.608 µM in [10]. The TGI is above 100 µM in [1]; above 100 µM in assay [2]; above 100 µM in assay [3]; above 100 µM in assay [4]; above 100 µM in assay [5]; 60.2 µM in [6]. Moreover, the TGI in [7] is above 100 µM; in assay [8], above 80.3 µM; in assay [9] it was above 100 µM; in assay [10] it was above 100 µM.

In the case of `O=C1/C(=C/c2ccc(Br)cc2)C=C(c2ccccc2)N1CCc1ccccc1`, the GI50 in assay [1] is 7.76 µM; in [2], 4.73 µM; in [3] it was 0.82 µM; in assay [4], 1.5 µM; in assay [5], 0.906 µM; in [6], 6.54 µM. The GI50 was 2.27 µM in [7], 1.55 µM in assay [8], 1.21 µM in [9] and 1.82 µM in assay [10]. For the same molecule, the TGI in [1] is above 100 µM; in assay [2], above 100 µM; in assay [3], 10.8 µM; in assay [4], 6.64 µM; in assay [5], 10.2 µM; in [6], 87.1 µM. The TGI in [7] came to 16.3 µM; in [8] it was 5 µM; in assay [9], 5.03 µM; in assay [10], 6.06 µM.

In the case of `CCCCNC1=C(C(=O)OCC)C(=O)CO1`, the TGI in [1], in assay [2], in assay [3], in [4], in [5] and in [6] was above 100 µM each time. Also, the TGI in assay [7], in [8], in assay [9] and in assay [10] was above 100 µM in each case.

With `CCOc1cccc(/C=N/NC(=O)c2ccccc2Nc2ccnc(C(F)(F)F)c2)c1O`, the GI50 is 0.136 µM in assay [1]; 3.79 µM in [2]; 0.241 µM in assay [3]; 0.835 µM in [4]; 0.272 µM in [5]; 3.47 µM in [6]. Further, the GI50 in assay [7] is 0.599 µM; in assay [8] it was 0.676 µM; in [9], 2.04 µM; in assay [10], 0.567 µM. The TGI was above 31.4 µM in assay [1]; above 100 µM in [2]; above 100 µM in assay [3]; 43.6 µM in [4]; 7.05 µM in assay [5]; above 63 µM in [6]. Moreover, the TGI in assay [7] was above 100 µM; in assay [8], 40.5 µM; in assay [9] it was above 100 µM; in assay [10] it was above 100 µM.

`CCCCCCCCCC[C@@H](O)[C@@H]1CC[C@H]([C@H]2CC[C@@H]([C@@H](O)CCCCCCCCCC[C@H]3CC(CC(C)=O)C(=O)O3)O2)O1` (some centres undefined): the TGI was 33.4 µM in assay [1]; 34.6 µM in [2]; 36 µM in [3]; 19.1 µM in assay [4]; above 100 µM in assay [5]; 13.2 µM in assay [6]. In addition, the TGI in assay [7] came out at 31.4 µM; in assay [8], 34.1 µM; in assay [9], 31.3 µM; in [10] it was 32.8 µM.

On to `COc1cc(OC)cc(-c2ccc(-c3ccc(C(=N)N)o3)o2)c1`, for which the GI50 was 2.72 µM in [1]; 2.77 µM in assay [2]; 1.79 µM in assay [3]; 2.04 µM in assay [4]; 2.32 µM in assay [5]; 2.3 µM in assay [6]. The GI50 in assay [7] was 3.4 µM; in [8] it was 14.9 µM; in assay [9], 3.02 µM; in assay [10] it was 13.4 µM. Moreover, the TGI in [1] was found to be 7.72 µM; in [2] it was 9.04 µM; in assay [3], 3.29 µM; in assay [4] it was 4.21 µM; in [5] it was 5.17 µM; in assay [6], 7.4 µM. In addition, the TGI in assay [7] is 13.2 µM; in assay [8], 28.5 µM; in assay [9], 10.6 µM; in assay [10], 26.5 µM.
